Reference: the CheMixHub viscosity set
± gives the uncertainty stated by the source.

Experiment: xn = mol fraction of the nth substance listed

COC(=O)OC + CCCCO
Conditions | viscosity [mPa·s]
293.15 K, 101 kPa, x1 = 0.05212 | 2.427
293.15 K, 101 kPa, x1 = 0.09994 | 2.071
293.15 K, 101 kPa, x1 = 0.191 | 1.611
293.15 K, 101 kPa, x1 = 0.2904 | 1.291
293.15 K, 101 kPa, x1 = 0.4109 | 1.029
293.15 K, 101 kPa, x1 = 0.4555 | 0.957
293.15 K, 101 kPa, x1 = 0.6133 | 0.775
293.15 K, 101 kPa, x1 = 0.7008 | 0.71
293.15 K, 101 kPa, x1 = 0.8063 | 0.656
293.15 K, 101 kPa, x1 = 0.907 | 0.63
293.15 K, 101 kPa, x1 = 0.9512 | 0.636
293.15 K, 101.3 kPa, x1 = 0.0518 | 2.461 ± 0.11
293.15 K, 101.3 kPa, x1 = 0.0975 | 2.119 ± 0.097
293.15 K, 101.3 kPa, x1 = 0.1961 | 1.586 ± 0.074
293.15 K, 101.3 kPa, x1 = 0.3064 | 1.218 ± 0.059
293.15 K, 101.3 kPa, x1 = 0.4108 | 1.023 ± 0.05
293.15 K, 101.3 kPa, x1 = 0.4769 | 0.929 ± 0.046
293.15 K, 101.3 kPa, x1 = 0.6101 | 0.794 ± 0.041
293.15 K, 101.3 kPa, x1 = 0.7043 | 0.719 ± 0.037
293.15 K, 101.3 kPa, x1 = 0.8043 | 0.644 ± 0.034
293.15 K, 101.3 kPa, x1 = 0.9052 | 0.607 ± 0.033
293.15 K, 101.3 kPa, x1 = 0.9508 | 0.605 ± 0.032
298.15 K, 101.3 kPa, x1 = 0.0527 | 2.192 ± 0.1
298.15 K, 101.3 kPa, x1 = 0.1009 | 1.877 ± 0.087
298.15 K, 101.3 kPa, x1 = 0.2002 | 1.411 ± 0.067
298.15 K, 101.3 kPa, x1 = 0.2986 | 1.127 ± 0.055
298.15 K, 101.3 kPa, x1 = 0.3974 | 0.952 ± 0.047
298.15 K, 101.3 kPa, x1 = 0.5039 | 0.831 ± 0.042
298.15 K, 101.3 kPa, x1 = 0.6008 | 0.748 ± 0.039
298.15 K, 101.3 kPa, x1 = 0.7028 | 0.673 ± 0.035
298.15 K, 101.3 kPa, x1 = 0.8011 | 0.611 ± 0.033
298.15 K, 101.3 kPa, x1 = 0.8965 | 0.572 ± 0.031
298.15 K, 101.3 kPa, x1 = 0.9503 | 0.569 ± 0.031
303.15 K, 101 kPa, x1 = 0.0494 | 1.938
303.15 K, 101 kPa, x1 = 0.1058 | 1.648
303.15 K, 101 kPa, x1 = 0.2154 | 1.256
303.15 K, 101 kPa, x1 = 0.2915 | 1.077
303.15 K, 101 kPa, x1 = 0.4086 | 0.882
303.15 K, 101 kPa, x1 = 0.5007 | 0.769
303.15 K, 101 kPa, x1 = 0.5847 | 0.697
303.15 K, 101 kPa, x1 = 0.7003 | 0.622
303.15 K, 101 kPa, x1 = 0.798 | 0.581
303.15 K, 101 kPa, x1 = 0.9065 | 0.553
303.15 K, 101 kPa, x1 = 0.9587 | 0.551
303.15 K, 101.3 kPa, x1 = 0.0249 | 2.078 ± 0.095
303.15 K, 101.3 kPa, x1 = 0.096 | 1.666 ± 0.078
303.15 K, 101.3 kPa, x1 = 0.1911 | 1.304 ± 0.062
303.15 K, 101.3 kPa, x1 = 0.2998 | 1.046 ± 0.051
303.15 K, 101.3 kPa, x1 = 0.3877 | 0.903 ± 0.045
303.15 K, 101.3 kPa, x1 = 0.4799 | 0.787 ± 0.04
303.15 K, 101.3 kPa, x1 = 0.5865 | 0.681 ± 0.036
303.15 K, 101.3 kPa, x1 = 0.6907 | 0.608 ± 0.033
303.15 K, 101.3 kPa, x1 = 0.7931 | 0.564 ± 0.031
303.15 K, 101.3 kPa, x1 = 0.8925 | 0.547 ± 0.03
303.15 K, 101.3 kPa, x1 = 0.9464 | 0.542 ± 0.03
313.15 K, 101 kPa, x1 = 0.04725 | 1.542
313.15 K, 101 kPa, x1 = 0.1216 | 1.252
313.15 K, 101 kPa, x1 = 0.2016 | 1.027
313.15 K, 101 kPa, x1 = 0.2876 | 0.857
313.15 K, 101 kPa, x1 = 0.3956 | 0.712
313.15 K, 101 kPa, x1 = 0.414 | 0.693
313.15 K, 101 kPa, x1 = 0.6043 | 0.552
313.15 K, 101 kPa, x1 = 0.6975 | 0.511
313.15 K, 101 kPa, x1 = 0.8019 | 0.484
313.15 K, 101 kPa, x1 = 0.9062 | 0.477
313.15 K, 101 kPa, x1 = 0.9368 | 0.479
313.15 K, 101.3 kPa, x1 = 0.0499 | 1.536 ± 0.072
313.15 K, 101.3 kPa, x1 = 0.0998 | 1.351 ± 0.064
313.15 K, 101.3 kPa, x1 = 0.2234 | 1.018 ± 0.05
313.15 K, 101.3 kPa, x1 = 0.3 | 0.88 ± 0.044
313.15 K, 101.3 kPa, x1 = 0.3991 | 0.752 ± 0.039
313.15 K, 101.3 kPa, x1 = 0.5054 | 0.662 ± 0.035
313.15 K, 101.3 kPa, x1 = 0.603 | 0.598 ± 0.032
313.15 K, 101.3 kPa, x1 = 0.6904 | 0.557 ± 0.03
313.15 K, 101.3 kPa, x1 = 0.8009 | 0.52 ± 0.029
313.15 K, 101.3 kPa, x1 = 0.9014 | 0.497 ± 0.028
313.15 K, 101.3 kPa, x1 = 0.9471 | 0.494 ± 0.028
